SMILES strings stand for the structures.

In this test the target is P. falciparum apicoplast DNA polymerase (Pf-apPOL) (Plasmodium falciparum, UniProt Q8ILY1). Kind of test: Fluorescence-based high-throughput DNA polymerase assay (molecular beacon), primary screen and dose-response. The class given is biochemical. The method in brief: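 Single-point screening used 10 µM compound with 20 nM polymerase, 20 nM hairpin substrate and 6 µM dNTPs for 90 min at 25 °C. Confirmatory titrations (2.5–80 µM) followed fluorescence at three times, and IC50 was derived from a fit including a cooperativity term n.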
Chain of P. falciparum apicoplast DNA polymerase (Pf-apPOL) (Q8ILY1 entry or part of it): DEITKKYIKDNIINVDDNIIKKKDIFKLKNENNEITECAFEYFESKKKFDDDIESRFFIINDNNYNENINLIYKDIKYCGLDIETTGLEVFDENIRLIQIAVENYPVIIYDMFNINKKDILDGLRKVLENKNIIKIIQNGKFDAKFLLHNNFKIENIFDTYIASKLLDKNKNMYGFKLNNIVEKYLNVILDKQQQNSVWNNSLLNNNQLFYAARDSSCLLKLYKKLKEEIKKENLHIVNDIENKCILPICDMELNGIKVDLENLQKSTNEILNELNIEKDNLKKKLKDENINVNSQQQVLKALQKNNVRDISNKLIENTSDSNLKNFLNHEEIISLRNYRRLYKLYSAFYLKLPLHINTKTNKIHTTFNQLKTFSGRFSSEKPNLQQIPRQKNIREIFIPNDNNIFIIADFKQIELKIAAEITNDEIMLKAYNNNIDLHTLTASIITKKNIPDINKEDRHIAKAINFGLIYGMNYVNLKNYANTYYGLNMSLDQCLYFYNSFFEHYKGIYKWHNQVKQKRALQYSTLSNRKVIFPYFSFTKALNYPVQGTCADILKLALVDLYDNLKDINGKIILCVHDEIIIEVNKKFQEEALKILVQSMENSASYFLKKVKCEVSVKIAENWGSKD

Where [1] appears, read: primary screen value of the 186 hits; unit not given; 90 min, 10 µM.
The mark [2] stands for this setting: supplemental file 2, sheet IC50 nontoxic compounds; Pf-apPOL.

What is called IC50 is the concentration that gives 50% inhibition. Consider `CCCCCCCCCCCC1SCC(C(=O)O)N1C(C)=O` (stereo not shown) [Molecule 72], for which the “% inhibition Apo pol 10'” value (DRC-1; 10'; concentration 2.5) came to 3.482%; the “% inhibition Apo pol 10'” value (DRC-1; 10'; concentration 5) came to 5.699%; the “% inhibition Apo pol 10'” value (DRC-1; 10'; concentration 10) was 15.2619%; the “% inhibition Apo pol 10'” value (DRC-1; 10'; concentration 20) is reported as 24.1814%; the “% inhibition Apo pol 10'” value (DRC-1; 10'; concentration 40) came to 35.0794%; the “% inhibition Apo pol 10'” value (DRC-1; 10'; concentration 80) is given as 89.6133%. Besides, the “% inhibition Apol 90'” value by setting is: (DRC-1; 90'; concentration 2.5) 2.632%; (DRC-1; 90'; concentration 5) 5.518%; (DRC-1; 90'; concentration 10) 12.9803%; (DRC-1; 90'; concentration 20) 20.4329%; (DRC-1; 90'; concentration 40) 28.5438%; (DRC-1; 90'; concentration 80) 88.679%. In addition, the “% inhibition apPOL 180'” value by setting is: (DRC-1; 180'; concentration 2.5) -2.715%; (DRC-1; 180'; concentration 5) -0.6083%; (DRC-1; 180'; concentration 10) 5.5577%; (DRC-1; 180'; concentration 20) 11.4894%; (DRC-1; 180'; concentration 40) 17.8626%; (DRC-1; 180'; concentration 80) 86.0518%. The “% inhibition apPOL 180'” value is given as 0.516% (DRC-2; 180'; concentration 2.5); 5% (DRC-2; 180'; concentration 5); 17% (DRC-2; 180'; concentration 10); 34% (DRC-2; 180'; concentration 20); 64% (DRC-2; 180'; concentration 40); 84% (DRC-2; 180'; concentration 80). Besides, the “% inhibition Apo pol 5'” value is 13% (DRC-2; 5'; concentration 2.5); 16% (DRC-2; 5'; concentration 5); 26% (DRC-2; 5'; concentration 10); 38% (DRC-2; 5'; concentration 20); 54% (DRC-2; 5'; concentration 40); 59% (DRC-2; 5'; concentration 80). Moreover, the “% inhibition Apo pol 5'” value is recorded as 13% (conc. 2.5; 5'; DRC-2) and 26% (conc. 10; 5'; DRC-2). Further, the “% inhibition Apol 40'” value is, setting by setting: (DRC-2; 40'; concentration 2.5) 10%; (DRC-2; 40'; concentration 5) 15%; (DRC-2; 40'; concentration 10) 29%; (DRC-2; 40'; concentration 20) 44%; (DRC-2; 40'; concentration 40) 65%; (DRC-2; 40'; concentration 80) 76%. In addition, the “% inhibition ApPOL 90'” value turned out to be 6% (DRC-2; 90'; concentration 2.5); 13% (DRC-2; 90'; concentration 5); 26% (DRC-2; 90'; concentration 10); 43% (DRC-2; 90'; concentration 20); 67% (DRC-2; 90'; concentration 40); 81% (DRC-2; 90'; concentration 80). The “% inhibition ApPOL 90'” value reads like this: (conc. 5; 90'; DRC-2) 13%; (conc. 10; 90'; DRC-2) 26%. Also, the “DNA Pol” value runs as follows: (primary screen value by plate and well; 90 min, 10 µM) 90; under setting [1], 90. Moreover, the IC50 under setting [2] worked out at 48.9 µM.

With `CC(=O)OCC1=C(C(=O)O)N2C(=O)[C@@H](NC(=O)Cc3cccs3)[C@H]2SC1` [Molecule 73], the half-maximal inhibitory concentration (IC50) under setting [2] came to 16.6 µM.

Turning to `O=C(Nc1nnc(-c2cccs2)o1)c1ccc([N+](=O)[O-])o1` [Molecule 74, O=C(c1ccc(o1)[N+](=O)[O-])Nc1nnc(o1)c1cccs1], the “DNA Pol” value runs as follows: ('DNA Pol'; screening value, unit not given; 90 min, 10 µM) 45; (primary screen hit value, DNA Pol (186 hits); 90 min, 10 µM) 45. The “% inhibition Apo pol 10'” value (DRC-1; 10'; concentration 2.5) came out at 6.774%; the “% inhibition Apo pol 10'” value (DRC-1; 10'; concentration 5) was found to be 8.378%; the “% inhibition Apo pol 10'” value (DRC-1; 10'; concentration 10) turned out to be 26.6912%; the “% inhibition Apo pol 10'” value (DRC-1; 10'; concentration 20) is given as 31.2083%; the “% inhibition Apo pol 10'” value (DRC-1; 10'; concentration 40) amounted to 61.6111%; the “% inhibition Apo pol 10'” value (DRC-1; 10'; concentration 80) was found to be 81.7408%. For the same compound, the “% inhibition Apol 90'” value (DRC-1; 90'; concentration 2.5) was 1.699%; the “% inhibition Apol 90'” value (DRC-1; 90'; concentration 5) turned out to be 1.687%; the “% inhibition Apol 90'” value (DRC-1; 90'; concentration 10) is on record as 13.6974%; the “% inhibition Apol 90'” value (DRC-1; 90'; concentration 20) is given as 16.6576%; the “% inhibition Apol 90'” value (DRC-1; 90'; concentration 40) was found to be 40.7668%; the “% inhibition Apol 90'” value (DRC-1; 90'; concentration 80) worked out at 62.2777%. For the same compound, the “% inhibition apPOL 180'” value (DRC-1; 180'; concentration 2.5) is -4.1234%; the “% inhibition apPOL 180'” value (DRC-1; 180'; concentration 5) was -4.583%; the “% inhibition apPOL 180'” value (DRC-1; 180'; concentration 10) is 3.855%; the “% inhibition apPOL 180'” value (DRC-1; 180'; concentration 20) stood at 5.086%; the “% inhibition apPOL 180'” value (DRC-1; 180'; concentration 40) is reported as 25.388%; the “% inhibition apPOL 180'” value (DRC-1; 180'; concentration 80) was 45.6773%. Besides, the “% inhibition apPOL 180'” value is, setting by setting: (DRC-2, 180', concentration 2.5) -3.19%; (DRC-2, 180', concentration 5) 7%; (DRC-2, 180', concentration 10) 15%; (DRC-2, 180', concentration 20) 20%; (DRC-2, 180', concentration 40) 45%; (DRC-2, 180', concentration 80) 76%. For the same compound, the “% inhibition Apo pol 5'” value by setting is: (DRC-2, 5', concentration 2.5) 3%; (DRC-2, 5', concentration 5) 14%; (DRC-2, 5', concentration 10) 30%; (DRC-2, 5', concentration 20) 41%; (DRC-2, 5', concentration 40) 61%; (DRC-2, 5', concentration 80) 70%. Also, where the note is “conc 40 (unit not given); 5'; DRC-2”, the “% inhibition Apo pol 5'” value was 61%. Also, the “% inhibition Apol 40'” value was 1.79% (DRC-2, 40', concentration 2.5); 13% (DRC-2, 40', concentration 5); 27% (DRC-2, 40', concentration 10); 36% (DRC-2, 40', concentration 20); 61% (DRC-2, 40', concentration 40); 78% (DRC-2, 40', concentration 80). Besides, the “% inhibition Apol 40'” value (conc 40 (unit not given); 40'; DRC-2) came out at 61%. The “% inhibition ApPOL 90'” value by setting is: (DRC-2, 90', concentration 2.5) -0.446%; (DRC-2, 90', concentration 5) 12%; (DRC-2, 90', concentration 10) 24%; (DRC-2, 90', concentration 20) 32%; (DRC-2, 90', concentration 40) 57%; (DRC-2, 90', concentration 80) 79%.

Take `O=C(Nc1nnc(-c2cccs2)o1)c1ccc([N+](=O)[O-])o1` [Molecule 74]: the half-maximal inhibitory concentration (IC50) under setting [2] is 30.8 µM.

Take `CCCCOC(=O)CCCCCN1C(=O)C(=Cc2ccc(OC)cc2)SC1=S` [Molecule 75, CCCCOC(=O)CCCCCN1C(=S)SC(=Cc2ccc(cc2)OC)C1=O]: the “% inhibition Apo pol 10'” value is, setting by setting: (DRC-1; 10'; concentration 2.5) -1.1804%; (DRC-1; 10'; concentration 5) 1.705%; (DRC-1; 10'; concentration 10) 11.988%; (DRC-1; 10'; concentration 20) 12.7699%; (DRC-1; 10'; concentration 40) 17.437%; (DRC-1; 10'; concentration 80) 85.0535%. In addition, the “% inhibition Apol 90'” value (DRC-1; 90'; concentration 2.5) is recorded as 3.6918%; the “% inhibition Apol 90'” value (DRC-1; 90'; concentration 5) was 7.9015%; the “% inhibition Apol 90'” value (DRC-1; 90'; concentration 10) is recorded as 19.2889%; the “% inhibition Apol 90'” value (DRC-1; 90'; concentration 20) was 19.2951%; the “% inhibition Apol 90'” value (DRC-1; 90'; concentration 40) was 23.7139%; the “% inhibition Apol 90'” value (DRC-1; 90'; concentration 80) is on record as 84.541%. The “% inhibition apPOL 180'” value came to 6.465% (DRC-1; 180'; concentration 2.5); 11.5498% (DRC-1; 180'; concentration 5); 23.7615% (DRC-1; 180'; concentration 10); 23.8231% (DRC-1; 180'; concentration 20); 28.3946% (DRC-1; 180'; concentration 40); 81.7032% (DRC-1; 180'; concentration 80). Further, the “% inhibition apPOL 180'” value by setting is: (DRC-2; 180'; concentration 2.5) -5%; (DRC-2; 180'; concentration 5) 0.541%; (DRC-2; 180'; concentration 10) 18%; (DRC-2; 180'; concentration 20) 40%; (DRC-2; 180'; concentration 40) 76%; (DRC-2; 180'; concentration 80) 79%. The “% inhibition Apo pol 5'” value by setting is: (DRC-2; 5'; concentration 2.5) -2%; (DRC-2; 5'; concentration 5) 3%; (DRC-2; 5'; concentration 10) 20%; (DRC-2; 5'; concentration 20) 30%; (DRC-2; 5'; concentration 40) 45%; (DRC-2; 5'; concentration 80) 46%. Also, the “% inhibition Apol 40'” value is, setting by setting: (DRC-2; 40'; concentration 2.5) -0.735%; (DRC-2; 40'; concentration 5) 5%; (DRC-2; 40'; concentration 10) 24%; (DRC-2; 40'; concentration 20) 42%; (DRC-2; 40'; concentration 40) 66%; (DRC-2; 40'; concentration 80) 69%. Also, the “% inhibition ApPOL 90'” value was -1% (DRC-2; 90'; concentration 2.5); 6.48% (DRC-2; 90'; concentration 5); 25% (DRC-2; 90'; concentration 10); 43% (DRC-2; 90'; concentration 20); 71% (DRC-2; 90'; concentration 40); 74% (DRC-2; 90'; concentration 80). Besides, the “DNA Pol” value reads like this: under setting [1], 27; (primary screen value, head "DNA Pol", unit not given; 90 min, 10 µM) 27.

On to `CCCCOC(=O)CCCCCN1C(=O)C(=Cc2ccc(OC)cc2)SC1=S` [Molecule 75], for which the IC50 under setting [2] is 56.7 µM.
